Values joined by “and” are separate entries in the source; they are usually repeats but may differ in a detail not shown here. Equal entries are not always repeated. Where two headings read alike, the source gives them in different places. *1 amine or outer side, *2 acyl side, *3 side chain or, on linkers, in order; H or OH if unused. Where a SMILES comes first, the peptide text is derived from it. Side-chain parts run from the residue outwards. [ ]: non-standard residue; d: D form. The star is where a group is joined. C20 diacid = O=C(O)CCCCCCCCCCCCCCCCCCC(=O)*; γGlu = O=C(O)[C@H](CCC(=O)[*:2])N[*:1]; NMeI = CC[C@H](C)[C@H](NC)C(=O)O; αMeL = CC(C)C[C@](C)(N)C(=O)O; AEEA = NCCOCCOCC(=O)O
What was measured:
[1] = Pharmacokinetics in Sprague Dawley rats, single subcutaneous or intravenous dose (incl. 10, 30, 100 nmol/kg dose response); format: in vivo; settings: for Tmax: read-out: Tmax
[2] = system: MHC-II presented peptides on human dendritic cells; assay: MAPPS assay (MHC-Associated Peptide Proteomics); format: cell-based
Procedure, shortened: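 Peptides eluted from anti-MHC-II immunoprecipitates of day-6 DC lysates were sequenced by MS, mapped onto the parent test molecule, and scored as percentage of donors presenting each region. DCs derived from donor CD14+ cells (IL-4, GM-CSF) received test molecules on day 4, then LPS maturation on day 5.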

[3] = male, Sprague Dawley, rat, plasma, iv, 201 nmol/kg, single intravenous dose 201 nmol/kg, individual animal
[4] = male, Sprague Dawley, rat, plasma, iv, 201 nmol/kg, single intravenous dose 201 nmol/kg, mean
[5] = male, Sprague Dawley, rat, plasma, sc, 201 nmol/kg, single subcutaneous dose 201 nmol/kg, individual animal
[6] = male, Sprague Dawley, rat, plasma, sc, 201 nmol/kg, single subcutaneous dose 201 nmol/kg, mean
[7] = single intravenous dose 201 nmol/kg, male Sprague Dawley rats, individual animal
[8] = single subcutaneous dose 201 nmol/kg, male Sprague Dawley rats, individual animal

CC[C@H](C)[C@H](NC)C(=O)N[C@H](C(=O)N[C@H](C(=O)N[C@@H](CO)C(=O)N[C@@H](CC(C)C)C(=O)N[C@@H](CC(=O)O)C(=O)N[C@H](C(=O)N1CCC[C@H]1C(=O)N[C@H](C(=O)NCC(=O)N[C@@](C)(CC(C)C)C(=O)N[C@@H](CC(C)C)C(=O)N[C@@H](CCC(N)=O)C(=O)N[C@@H](CCCCN)C(=O)N[C@@H](CC(C)C)C(=O)N[C@@H](CC(C)C)C(=O)N[C@@H](CCC(=O)O)C(=O)N[C@@H](CCC(N)=O)C(=O)N[C@@H](CCC(=O)O)C(=O)N[C@@H](CCCNC(=N)N)C(=O)N[C@@H](C)C(=O)N[C@@H](CCC(=O)O)C(=O)N[C@@H](CCCCN)C(=O)N[C@@H](C)C(=O)N[C@@H](CCCNC(=N)N)C(=O)N[C@@H](CCC(N)=O)C(=O)N[C@@H](CCC(N)=O)C(=O)N[C@@H](C)C(=O)N[C@@H](CCCCNC(=O)COCCOCCNC(=O)COCCOCCNC(=O)CC[C@H](NC(=O)CCCCCCCCCCCCCCCCCCC(=O)O)C(=O)O)C(=O)N[C@@H](CCC(=O)O)C(=O)N[C@@H](C)C(=O)N[C@@H](C)C(=O)N[C@@H](CCC(=O)O)C(=O)N[C@H](C(=O)N[C@@H](CC(C)C)C(=O)N[C@@H](C)C(=O)N[C@@H](CCC(N)=O)C(=O)N[C@H](C(N)=O)C(C)C)[C@@H](C)CC)[C@@H](C)CC)C(C)C)[C@@H](C)O)C(C)C [SEQ ID NO: 50, (NMeI) VTSLDVPIG αMeL LQKLLEQERAEKARQQAK((2-[2-(2-Amino-ethoxy)-ethoxy]-acetyl)2-γE-CO-(CH2)18-CO2H)EAAEILAQV-NH2] (H-[NMeI]VTSLDVPIG[αMeL]LQKLLEQERAEKARQQAK([AEEA-AEEA-γGlu-C20 diacid])EAAEILAQV-NH2)
clearance [1, 3]: 3.37 mL/h/kg | half-life [1, 3]: 20.3 h | clearance [1, 4]: 2.93 mL/h/kg | half-life [1, 4]: 19.2 h | half-life [1, 5]: 19.7 h | CL/F ([1]; male, Sprague Dawley, rat, plasma, sc, 201 nmol/kg, single subcutaneous dose 201 nmol/kg, individual animal, read-out: CL/F (converted)): 7.55 mL/h/kg | Tmax [1, 5]: 24 h | half-life [1, 6]: 17.1 h | CL/F ([1]; male, Sprague Dawley, rat, plasma, sc, 201 nmol/kg, single subcutaneous dose 201 nmol/kg, mean, read-out: CL/F (converted)): 7.53 mL/h/kg | Tmax [1, 6]: 24 h | AUC0-inf ([1]; rat, plasma, sc, single subcutaneous dose 201 nmol/kg, male Sprague Dawley rats, mean, read-out: AUC0-inf): 26.8 µM·h | Cmax ([1]; rat, plasma, sc, single subcutaneous dose 201 nmol/kg, male Sprague Dawley rats, mean, read-out: Cmax): 552 nM | AUC0-inf ([1]; rat, plasma, single intravenous dose 201 nmol/kg, male Sprague Dawley rats, mean, read-out: AUC0-inf): 69.2 µM·h | C0 ([1]; rat, plasma, single intravenous dose 201 nmol/kg, male Sprague Dawley rats, mean, read-out: C0): 5290 nM | AUC0-inf [1, 7]: 59.6 µM·h and 74.2 µM·h and 73.9 µM·h | C0 [1, 7]: 5560 nM and 4360 nM and 5960 nM | CL [1, 7]: 2.71 mL/h/kg and 2.72 mL/h/kg | T1/2 [1, 7]: 18.3 h and 19.0 h | AUC0-inf [1, 8]: 26.7 µM·h and 25.1 µM·h and 28.7 µM·h | CL/F [1, 8]: 8.03 mL/h/kg and 7.01 mL/h/kg | Cmax [1, 8]: 577 nM and 460 nM and 618 nM | T1/2 [1, 8]: 14.9 h and 16.7 h | MAPPS Assay >10 donors with diverse MHC ([2]; donors displaying MHC-II peptides / donors tested): 3/10 | peptides displayed on MHC-II complexes ([2]; human dendritic cells from normal donors): at least one peptide cluster on MHC-II complexes in a subset of donors | immunogenicity compared with SEQ ID NO:54 ([2]; in the MAPPs assay and/or the T cell proliferation assay): substantial improvements in immunogenicity over a compound comprising SEQ ID NO:54 | MAPPS Assay >10 donors with diverse MHC ([2]; percentage of donors displaying MHC-II peptides): 30%

Reference: patent US20250163119A1, “COMPOUNDS FOR THE TREATMENT OF DIABETES OR OBESITY” (Eli Lilly and Company, priority 2023, published 2025)
